Results reported in US20250114338A1, “TETRAHYDRO-PYRIDO[3,4-b]INDOLE ESTROGEN RECEPTOR MODULATORS AND USES THEREOF” (Genentech, Inc., priority 2014, published 2025).

test system: ER-alpha MCF7; assay: ER-alpha MCF7 HCS EC50; stated as measured by in vitro cell proliferation assays of Examples 902 and 903; type: cell-based; conditions: Homo sapiens, MCF7, MCF7 cells; Table 1
Description: The CellTiter-Glo® Luminescent Cell Viability Assay is a homogeneous method to determine the number of viable cells in culture based on quantitation of the ATP present, which signals the presence of metabolically active cells. The CellTiter-Glo® Assay is designed for use with multiwell plate formats, making it ideal for automated high-throughput screening (HTS), cell proliferation and cytotoxicity assays. The homogeneous assay procedure involves adding a single reagent (CellTiter-Glo® Reagent) directly to cells cultured in serum-supplemented medium. Cell washing, removal of medium or multiple pipetting steps are not required. The Cell Titer-Glo® Luminescent Cell Viability Assay, including reagents and protocol are commercially available (Promega Corp., Madison, WI, Technical Bulletin TB288).
The assay assesses the ability of compounds to enter cells and inhibit cell proliferation. The assay principle is based on the determination of the number of viable cells present by quantitating the ATP present in a homogenous assay where addition of the Cell Titer-Glo® reagent results in cell lysis and generation of a luminescent signal through the luciferase reaction. The luminescent signal is proportional to the amount of ATP present.
Cell Culture Medium: RPMI or DMEM high glucose, 10% Fetal Bovine Serum, 2 mM L-Glutamine, P/S. Incubate O/N (overnight) at 37° C., 5% CO2.
Day 2—Add Drug to Cells, Compound Dilution, DMSO Plates (serial 1:2 for 9 points). Add 20 μl of compound at 10 mM in the 2nd column of 96 well plate. […] Add 147 μl of Media into all wells. Transfer 3 μl of DMSO+ compound from each well in the DMSO Plate to each corresponding well on Media Plate using Rapidplate® (Caliper, a Perkin-Elmer Co.). For 2 drug combination studies, transfer one drug 1.5 μl of DMSO+ compound from each well in the DMSO Plate to each corresponding well on Media Plate using Rapidplate. Then, transfer another drug 1.5 μl to the medium plate.
Drug Addition to Cells, Cell Plate (1:10 dilution): Add 6 μl of media+ compound directly to cells (54 μl of media on the cells already). Incubate 3 days at 37° C., 5% CO2 in an incubator that will not be opened often.
Day 5—Develop Plates, Thaw Cell Titer Glo Buffer at room temperature: Remove Cell Plates from 37° C. and equilibrate to room temperature for about 30 minutes. Add Cell Titer-Glo® Buffer to Cell Titer-Glo® Substrate (bottle to bottle). Add 30 μl Cell Titer-Glo® Reagent (Promega cat. #G7572) to each well of cells. Place on plate shaker for about 30 minutes. Read luminescence on Analyst HT Plate Reader (half second per well).
Cell viability assays and combination assays: Cells were seeded at 1000-2000 cells/well in 384-well plates for 16 h. On day two, nine serial 1:2 compound dilutions were made in DMSO in a 96 well plate. The compounds were further diluted into growth media using a Rapidplate® robot (Zymark Corp., Hopkinton, MA). The diluted compounds were then added to quadruplicate wells in 384-well cell plates and incubated at 37° C. and 5% CO2. After 4 days, relative numbers of viable cells were measured by luminescence using Cell Titer-Glo® (Promega) according to the manufacturer's instructions and read on a Wallac Multilabel Reader® (PerkinElmer, Foster City). EC50 values were calculated using Prism® 4.0 software (GraphPad, San Diego).
5 ul of each individual compound concentration and each control compound was transferred to the cell plate. Fulvestrant was added to control wells at a final concentration of 100 nM). DMSO was added to negative control wells (0.2% v/v).

Row | EC50 [nM] | Structure (SMILES)
1 | 0.898 | C[C@@H]1Cc2c([nH]c3ccccc23)[C@@H](c2ccc(OCCN3CC(CF)C3)nc2)N1CC(C)(C)F [Example 111, (1R,3R)-2-(2-fluoro-2-methylpropyl)-1-(6-(2-(3-(fluoromethyl)azetidin-1-yl)ethoxy)pyridin-3-yl)-3-methyl-2,3,4,9-tetrahydro-1H-pyrido[3,4-b]indole]
2 | 0.092 | C[C@@H]1Cc2c([nH]c3ccccc23)[C@@H](c2ncc(OCCN3CC(CF)C3)cc2F)N1CC(C)(C)F [Example 112, (1S,3R)-2-(2-fluoro-2-methylpropyl)-1-(3-fluoro-5-(2-(3-(fluoromethyl)azetidin-1-yl)ethoxy)pyridin-2-yl)-3-methyl-2,3,4,9-tetrahydro-1H-pyrido[3,4-b]indole]
3 | 0.715 | C[C@@H]1Cc2c([nH]c3ccccc23)[C@@H](c2c(F)cc(OCCN3CC(CF)C3)cc2F)N1CC1(C)COC1 [Example 114, (1R,3R)-1-(2,6-difluoro-4-(2-(3-(fluoromethyl)azetidin-1-yl)ethoxy)phenyl)-3-methyl-2-((3-methyloxetan-3-yl)methyl)-2,3,4,9-tetrahydro-1H-pyrido[3,4-b]indole]

same assay, conditions: Homo sapiens, MCF7, MCF7 cells; Table 2

Row | EC50 [nM] | Structure (SMILES)
4 | 0.146 | CC(C)(F)CN1[C@@H](CO)Cc2c([nH]c3ccccc23)[C@@H]1c1c(F)cc(OCCN2CC(CF)C2)cc1F [Example 131, ((1S,3R)-1-(2,6-difluoro-4-(2-(3-(fluoromethyl)azetidin-1-yl)ethoxy)phenyl)-2-(2-fluoro-2-methylpropyl)-2,3,4,9-tetrahydro-1H-pyrido[3,4-b]indol-3-yl)methanol]
5 | 0.542 | C[C@@H]1Cc2c([nH]c3ccccc23)[C@@H](c2c(F)cc(OCCN3CC(CF)C3)cc2F)N1C1CCC1 [Example 134, (1R,3R)-2-cyclobutyl-1-[2,6-difluoro-4-[2-[3-(fluoromethyl)azetidin-1-yl]ethoxy]phenyl]-3-methyl-1,3,4,9-tetrahydropyrido[3,4-b]indole]
6 | 0.114 | C[C@@H]1Cc2c([nH]c3ccccc23)[C@@H](c2c(F)cc(OCCN3CC(CF)C3)cc2F)N1CC1(F)COC1 [Example 136, (1R,3R)-1-[2,6-difluoro-4-[2-[3-(fluoromethyl)azetidin-1-yl]ethoxy]phenyl]-2-[(3-fluorooxetan-3-yl)methyl]-3-methyl-1,3,4,9-tetrahydropyrido[3,4-b]indole]
7 | 28 | C[C@@H]1Cc2c([nH]c3ccccc23)[C@@H](c2c(F)cc(OCCN3CC(CF)C3)cc2F)N1C(=O)C1CCCCC1 [Example 137, cyclohexyl((1R,3R)-1-(2,6-difluoro-4-(2-(3-(fluoromethyl)azetidin-1-yl)ethoxy)phenyl)-3-methyl-3,4-dihydro-1H-pyrido[3,4-b]indol-2(9H)-yl)methanone]
8 | 2.48 | C[C@@H]1Cc2c([nH]c3ccccc23)[C@@H](c2c(F)cc(OCCN3CC(CF)C3)cc2F)N1C(=O)C1CC1 [Example 139, cyclopropyl((1R,3R)-1-(2,6-difluoro-4-(2-(3-(fluoromethyl)azetidin-1-yl)ethoxy)phenyl)-3-methyl-3,4-dihydro-1H-pyrido[3,4-b]indol-2(9H)-yl)methanone]
9 | 0.13 | CC1CN(CCOc2cc(F)c([C@@H]3c4[nH]c5ccccc5c4C[C@@H](C)N3CC(C)(C)F)c(F)c2)C1 [Example 140, (1R,3R)-1-[2,6-difluoro-4-[2-(3-methylazetidin-1-yl)ethoxy]phenyl]-2-(2-fluoro-2-methyl-propyl)-3-methyl-1,3,4,9-tetrahydropyrido[3,4-b]indole]
10 | 0.09 | C[C@@H]1Cc2c([nH]c3ccccc23)[C@@H](c2c(F)cc(OC[C@H](C)N3CCCC3)cc2F)N1CC(C)(C)F [Example 142, (1R,3R)-1-[2,6-difluoro-4-[(2S)-2-pyrrolidin-1-ylpropoxy]phenyl]-2-(2-fluoro-2-methyl-propyl)-3-methyl-1,3,4,9-tetrahydropyrido[3,4-b]indole]
11 | 0.144 | C[C@@H]1Cc2c([nH]c3ccccc23)[C@@H](c2c(F)cc(/C=C/CN3CC(CF)C3)cc2F)N1CC(C)(C)F [Example 144, (1R,3R)-1-[2,6-difluoro-4-[(E)-3-[3-(fluoromethyl)azetidin-1-yl]prop-1-enyl]phenyl]-2-(2-fluoro-2-methyl-propyl)-3-methyl-1,3,4,9-tetrahydropyrido[3,4-b]indole]

The next lines start with the molecule.

Row | Structure (SMILES) | EC50 [nM]
12 | C[C@@H]1Cc2c([nH]c3ccccc23)[C@@H](c2c(F)cc(OCCN3CC(CF)C3)cc2F)N1C(=O)C1CC(F)C1 (stereo in doubt) [Example 203, [1-[2,6-difluoro-4-[2-[3-(fluoromethyl)azetidin-1-yl]ethoxy]phenyl]-3-methyl-1,3,4,9-tetrahydropyrido[3,4-b]indol-2-yl]-(3-fluorocyclobutyl)methanone] | 4
13 | CC(CN1[C@H](c2c(F)cc(OC3CN(CCCF)C3)cc2F)c2[nH]c3ccccc3c2C[C@H]1C)C(=O)O (stereo in doubt) [Example 350, 3-[1-[2,6-difluoro-4-[1-(3-fluoropropyl)azetidin-3-yl]oxy-phenyl]-3-methyl-1,3,4,9-tetrahydropyrido[3,4-b]indol-2-yl]-2-methyl-propanoic acid] | 14
14 | C[C@@H]1Cc2c([nH]c3ccccc23)[C@@H](c2c(F)cc(OCCN3CC(CF)C3)cc2F)N1CC(C)(C)O [Example 127, 1-[(1R,3R)-1-[2,6-difluoro-4-[2-[3-(fluoromethyl)azetidin-1-yl]ethoxy]phenyl]-3-methyl-1,3,4,9-tetrahydropyrido[3,4-b]indol-2-yl]-2-methyl-propan-2-ol] | 0.641
15 | C[C@@H]1Cc2c([nH]c3ccccc23)[C@@H](c2c(F)cc(OC3CNC3)cc2F)N1CC(C)(C)F [Example 132, (1R,3R)-1-[4-(azetidin-3-yloxy)-2,6-difluoro-phenyl]-2-(2-fluoro-2-methyl-propyl)-3-methyl-1,3,4,9-tetrahydropyrido[3,4-b]indole] | 0.31
16 | C[C@@H]1Cc2c([nH]c3ccccc23)[C@@H](c2ccc(OCCN3CC(CF)C3)cc2F)N1CC(C)(C)F [Example 133, (1R,3R)-2-(2-fluoro-2-methylpropyl)-1-(2-fluoro-4-(2-(3-(fluoromethyl)azetidin-1-yl)ethoxy)phenyl)-3-methyl-2,3,4,9-tetrahydro-1H-pyrido[3,4-b]indole] | 0.0562
17 | CC(C)(F)CN1[C@H](CF)Cc2c([nH]c3ccccc23)[C@H]1c1c(F)cc(OCCN2CC(CF)C2)cc1F [Example 135, (1R,3S)-1-[2,6-difluoro-4-[2-[3-(fluoromethyl)azetidin-1-yl]ethoxy]phenyl]-3-(fluoromethyl)-2-(2-fluoro-2-methyl-propyl)-1,3,4,9-tetrahydropyrido[3,4-b]indole] | 0.0973
18 | C[C@@H]1Cc2c([nH]c3ccccc23)[C@@H](c2c(F)cc(OCCN3CC(CF)C3)cc2F)N1C(=O)C(C)(C)C [Example 138, 1-[(1R,3R)-1-[2,6-difluoro-4-[2-[3-(fluoromethyl)azetidin-1-yl]ethoxy]phenyl]-3-methyl-1,3,4,9-tetrahydropyrido[3,4-b]indol-2-yl]-2,2-dimethyl-propan-1-one] | 0.491
19 | C[C@@H]1CCN(CCOc2cc(F)c([C@@H]3c4[nH]c5ccccc5c4C[C@@H](C)N3CC(C)(C)F)c(F)c2)C1 [Example 141, (1R,3R)-1-(2,6-difluoro-4-(2-((R)-3-methylpyrrolidin-1-yl)ethoxy)phenyl)-2-(2-fluoro-2-methylpropyl)-3-methyl-2,3,4,9-tetrahydro-1H-pyrido[3,4-b]indole] | 0.151
20 | C[C@@H]1Cc2c([nH]c3ccccc23)[C@@H](c2c(F)cc(OCCCN3CC(CF)C3)cc2F)N1CC(C)(C)F [Example 143, (1R,3R)-1-[2,6-difluoro-4-[3-[3-(fluoromethyl)azetidin-1-yl]propoxy]phenyl]-2-(2-fluoro-2-methyl-propyl)-3-methyl-1,3,4,9-tetrahydropyrido[3,4-b]indole] | 0.078
